Like-named read-outs stand apart in the source and are kept apart here. Starred links: 1 amine or outer side, 2 acyl side, 3 side chain; linkers in the order of their positions; H or OH if unused. Non-standard residues stand in square brackets, D forms with d. Residues, ends and D or L forms follow the SMILES beside them. *: point of attachment. γ4hIle = CC[C@H](C)[C@@H](CCC(=O)[*:2])N[*:1]; Benzoyl(3-CN,4-F) = N#Cc1cc(C(=O)*)ccc1F; Ava = NCCCCC(=O)O
Key:
[1] = tested on: human prostate cancer PC-3; conditions: mouse, in vivo
Method: (§1) Nude mice bearing human prostate cancer PC-3 were injected with 100 μl radioactive peptide dissolved in PBS containing 135 kBq per animal. For blocking 100 μg unlabeled gastrin-releasing peptide was co-injected. One hour post injection the animals were sacrificed and organs dissected for counting in a gamma-counter. Values are expressed as percent of the injected dose per gram organ weight.

[2] = tested on: human prostate cancer PC-3; test: Biodistribution of F-18 bombesin analogs in nude mice bearing human prostate cancer PC-3; conditions: for Blocking: protocol as above (100 μg unlabeled gastrin-releasing peptide co-injected)
Method: as §1

tumor = conditions: FIG. 5; versus tumor-tissue ratio of 18F-choline (FCH) and 18F-FB-Lys-BN
[3] = Biodistribution of F-18 bombesin analogs in nude mice bearing human prostate cancer PC-3; conditions: nude, mouse, 135 kBq per animal, total radioactivity
Method: as §1

Molecule	Panc. % ID/g [1] [% ID/g]	T/B [1]	T/M [1]	Blocking ([2]; Table 1)	tumor-tissue ratio relative to 18F-choline (FCH) and 18F-FB-Lys-BN (tumor) [time higher]	tissue uptake at 1 h ([3]; blood) [%ID/g]	tissue uptake at 1 h ([3]; kidneys) [%ID/g]	tissue uptake at 1 h ([3]; liver) [%ID/g]	tissue uptake at 1 h ([3]; muscle) [%ID/g]	tissue uptake at 1 h ([3]; pancreas) [%ID/g]	tissue uptake at 1 h ([3]; tumor) [%ID/g]	tissue to tissue ratio at 1 h ([3]; tumor/blood)	tissue to tissue ratio at 1 h ([3]; tumor/muscle)	T/B ([2]; Table 1, tumor/blood ratio)	T/M ([2]; Table 1, tumor/muscle ratio)	specificity of targeting (blocking) ([2]; blocking values low in tumor, unchanged for the other tissue)	accumulation in tumor ([2]; conclusion from biodistribution, 1 h)
3-CF3,4-F-Benzoyl-Arg-Ava-Gln-Trp-Ala-Val-NMeGly-His-Sta-Leu-NH2 (RXQWAVGHXL; N-methyl; non-natural residues)	1.42	4.56	25.3	>70%													
3-CN,4-F-Benzoyl-Arg-Ava-Gln-Trp-Ala-Val-Gly-His(3Me)-Sta-Leu-NH2 (RXQWAVGHXL; non-natural residues)	4.16	5.65	13.84	30-90%													
3-CN,4-F-Benzoyl-Arg-Ava-Gln-Trp-Ala-Val-NMeGly-His-Sta-Leu-NH2 (RXQWAVGHXL; N-methyl; non-natural residues)	1.3	6.82	12.75	40-70%													
4F,3CN-Bnz-Arg-Ava-Gln-Trp-Ala-Val-NMeGly-His(3Me)-Sta-Leu-NH2 (RXQWAVGHXL; N-methyl; non-natural residues)	3.51	2.57	16.77	50-80%													
CC[C@H](C)[C@@H](CCC(=O)N[C@@H](CC(C)C)C(N)=O)NC(=O)[C@H](Cc1c[nH]cn1)NC(=O)CNC(=O)[C@@H](NC(=O)[C@H](C)NC(=O)[C@H](Cc1c[nH]c2ccccc12)NC(=O)[C@H](CCC(N)=O)NC(=O)CCCCNC(=O)c1ccc(F)c(C#N)c1)C(C)C [3-CN,4-F-Bz-Ava-Gln-Trp-Ala-Val-Gly-His-FA01010-Leu-NH2] ({Benzoyl(3-CN,4-F)-Ava}-QWAVGH[γ4hIle]L-NH2)				>70%	2.5	0.05 ± 0.01	0.24 ± 0.02	0.35 ± 0.13	0.02	0.34 ± 0.03	1 ± 0.01	21 ± 11.9	60 ± 29.5	21.03	59.99	specific	accumulates in tumor

— US20090317326A1, “RADIOFLUORINATION METHODS” (priority 2007, published 2009)
